In general, MIC refers to the least concentration at which growth counts as inhibited. Broadly, the IC50 is the concentration that inhibits the measured activity by half. Read a high IC50 as weaker potency in that assay.

Here are results for six compounds from publication PMC9951859, “Investigation of α,ω-Disubstituted Polyamine-Cholic Acid Conjugates Identifies Hyodeoxycholic and Chenodeoxycholic Scaffolds as Non-Toxic, Potent Antimicrobials” (Antibiotics, 2023).

The subject of one series is S. aureus. The experiment in a line: ATP release bioluminescence assay. The following applies: followed over 30 min after exposure, CTAB (1%) positive control. In kind it is cell-based, Staphylococcus aureus. As to the method: Solutions of the test compound 7e were prepared in DMSO at various concentrations. A suspension of growing S. aureus to be studied in Muller-Hinton II broth was prepared and incubated at 37 °C. An aliquot (90 µL) of this suspension was added to 10 µL of test compound solution and vortexed for 10 s. Luciferin–luciferase reagent (Yelen, France; 50 µL) was immediately added to this mixture, and luminescent signal quantified with an Infinite M200 microplate reader (Tecan) over a 30 min period; ATP concentration was quantified using internal sample addition. A similar procedure was used for the CTAB positive control.

The test system of series [1] is Staphylococcus aureus ATCC 43300 (MRSA). The experiment in a line: Antimicrobial MIC assay (CO-ADD) against S. aureus MRSA. In kind it is cell-based. Particulars: Staphylococcus aureus, read-out: MIC S.a. From the text: (§1) Antimicrobial evaluation against S. aureus (MRSA) (ATCC 43300), E. coli (ATCC 25922), K. pneumoniae (ATCC 700603), A. baumannii (ATCC 19606), C. albicans (ATCC 90028), and C. neoformans (ATCC 208821) was undertaken at the Community for Open Antimicrobial Drug Discovery at The University of Queensland (Australia) according to their standard protocols as reported previously.

The subject of series [2] is Escherichia coli ATCC 25922. The experiment in a line: Antimicrobial MIC assay (CO-ADD) against E. coli. It is filed as cell-based. Particulars: Escherichia coli, ATCC25922, read-out: MIC E.c.
Text: as §1

The subject of series [3] is Klebsiella pneumoniae ATCC 700603. The series is described as follows: Antimicrobial MIC assay (CO-ADD) against K. pneumoniae. It is filed as cell-based. The following applies: Klebsiella pneumoniae, ATCC700603, read-out: MIC K.p.
Text: as §1

Series [4] concerns Pseudomonas aeruginosa ATCC 27853. The series is described as follows: Antimicrobial MIC assay (CO-ADD) against P. aeruginosa. Particulars: Pseudomonas aeruginosa, ATCC27853, read-out: MIC P.a. It is filed as cell-based.
Series [5] concerns Acinetobacter baumannii ATCC 19606. The series is described as follows: Antimicrobial MIC assay (CO-ADD) against A. baumannii. In kind it is cell-based. The following applies: Acinetobacter baumannii, ATCC19606, read-out: MIC A.b.
Text: as §1

The subject of series [6] is Candida albicans ATCC 90028. The series is described as follows: Antimicrobial MIC assay (CO-ADD) against C. albicans. Particulars: Candida albicans, ATCC90028, read-out: MIC C.a., Candida albicans ATCC 90028; mean (n = 2). It is filed as cell-based.
Text: as §1

Series [7] relates to Cryptococcus neoformans ATCC 208821. The experiment in a line: Antimicrobial MIC assay (CO-ADD) against C. neoformans. In kind it is cell-based. The following applies: Cryptococcus neoformans, ATCC208821, read-out: MIC C.n.
Text: as §1

Series [8] can be described thus: Cytotoxicity assay on HEK293. In kind it is cell-based, human. The following applies: human, HEK293 human embryonic kidney cells; concentration at 50% cytotoxicity on HEK293; mean (n = 2); top dose tested 32 μg/mL. How it is done: (§2) Cytotoxicity assays were conducted using the protocols previously reported.
For another series, the system named is human red blood cells. The experiment in a line: Hemolytic assay. In kind it is cell-based. The following applies: concentration at 10% hemolytic activity on human red blood cells; mean (n = 2); top dose tested 32 μg/mL. How it is done: Hemolytic assays were conducted using the protocols previously reported.
A further series relates to P. aeruginosa ATCC 27853. The experiment in a line: Antibiotic enhancement of doxycycline. It is filed as cell-based, Pseudomonas aeruginosa. The following applies: doxycycline at 2 μg/mL. How it is done: (§3) Restoring enhancer concentrations were determined with an inoculum of 5 × 10^5 CFU in […] of MH broth containing two-fold serial dilutions of each derivative in the presence of either doxycycline or erythromycin at 2 μg/mL. […] These measurements were independently repeated in triplicate.

The subject of the next series is E. coli ATCC 25922. The series is described as follows: Antibiotic enhancement of erythromycin. In kind it is cell-based, Escherichia coli. Particulars: erythromycin at 2 μg/mL. How it is done: as §3
Series [9] deals with HEK293 human embryonic kidney cells. The series is described as follows: Cytotoxicity assay on HEK293. In kind it is cell-based. Particulars: concentration at 50% cytotoxicity on HEK293; mean (n = 2); top dose tested 32 μg/mL. How it is done: as §2

`CCCCCCCCCCCCCCCC[N+](C)(C)C` [CTAB, cetyltrimethylammonium bromide, reference compound]: in the series with S. aureus, the “ATP release (extracellular ATP, bioluminescence)” value is reported as “dramatically disrupted the S. aureus membrane after 2 min”.

For the compound `C[C@H](CCC(=O)NCCCNCCCCNCCCNC(=O)CC[C@@H](C)[C@H]1CC[C@H]2[C@@H]3C[C@H](O)[C@@H]4C[C@H](O)CC[C@]4(C)[C@H]3CC[C@]12C)[C@H]1CC[C@H]2[C@@H]3C[C@H](O)[C@@H]4C[C@H](O)CC[C@]4(C)[C@H]3CC[C@]12C.O=C(O)C(F)(F)F.O=C(O)C(F)(F)F` [Compound 7a, N^1,N^4-Bis(3-((R)-4-((3R,5R,6S,8S,9S,10R,13R,14S,17R)-3,6-dihydroxy-10,13-dimethylhexadecahydro-1H-cyclopenta[a]phenanthren-17-yl)pentanamido)propyl)butane-1,4-diaminium 2,2,2-trifluoroacetate], the MIC in series [1] was 3.4 µM; in series [2], over 27 µM; in series [3], over 27 µM; in series [4], over 27 µM; in series [5], over 27 µM; in series [6], 14 µM. Moreover, the MIC in series [7] is at most 0.21 µM. The compound further yielded an IC50 in series [8] of over 27 µM. In the series on human red blood cells, the “Hemolysis (HC10)” value is over 27 µM. Also, in the series with P. aeruginosa ATCC 27853, the “enhancement of antibiotic activity of doxycycline” value (shortened to “enhancement … of doxycycline”) is reported as “No enhancement was observed”. The “enhancement of antibiotic activity of erythromycin” value (“enhancement … of erythromycin” below) in the series on E. coli ATCC 25922 is listed as “No enhancement was observed”.

For `C[C@H](CCC(=O)NCCCNCCCCCCCNCCCNC(=O)CC[C@@H](C)[C@H]1CC[C@H]2[C@@H]3C[C@H](O)[C@@H]4C[C@H](O)CC[C@]4(C)[C@H]3CC[C@]12C)[C@H]1CC[C@H]2[C@@H]3C[C@H](O)[C@@H]4C[C@H](O)CC[C@]4(C)[C@H]3CC[C@]12C.O=C(O)C(F)(F)F.O=C(O)C(F)(F)F` [Compound 7c, N^1,N^7-Bis(3-((R)-4-((3R,5R,6S,8S,9S,10R,13R,14S,17R)-3,6-dihydroxy-10,13-dimethylhexadecahydro-1H-cyclopenta[a]phenanthren-17-yl)pentanamido)propyl)heptane-1,7-diaminium 2,2,2-trifluoroacetate], the MIC in [1] was at most 0.21 µM; in [2] it was over 26 µM; in [3], over 26 µM; in series [4], over 26 µM; in series [5], over 26 µM; in [6], 13 µM. In addition, the MIC in series [7] is at most 0.21 µM. For the same compound, in [8], the IC50 was over 26 µM. For the same compound, in the series on human red blood cells, the “Hemolysis (HC10)” value was over 26 µM. Further, in the series with P. aeruginosa ATCC 27853, the “enhancement … of doxycycline” value is given as “No enhancement was observed”. In addition, in the series with E. coli ATCC 25922, the “enhancement … of erythromycin” value is recorded as “No enhancement was observed”.

As to `C[C@H](CCC(=O)NCCCNCCCCCCCCNCCCNC(=O)CC[C@@H](C)[C@H]1CC[C@H]2[C@@H]3C[C@H](O)[C@@H]4C[C@H](O)CC[C@]4(C)[C@H]3CC[C@]12C)[C@H]1CC[C@H]2[C@@H]3C[C@H](O)[C@@H]4C[C@H](O)CC[C@]4(C)[C@H]3CC[C@]12C.O=C(O)C(F)(F)F.O=C(O)C(F)(F)F` [Compound 7d, N^1,N^8-Bis(3-((R)-4-((3R,5R,6S,8S,9S,10R,13R,14S,17R)-3,6-dihydroxy-10,13-dimethylhexadecahydro-1H-cyclopenta[a]phenanthren-17-yl)pentanamido)propyl)octane-1,8-diaminium 2,2,2-trifluoroacetate], the MIC was at most 0.2 µM in [1]; over 26 µM in series [2]; over 26 µM in series [3]; over 26 µM in [4]; over 26 µM in series [5]; 13 µM in series [6]. In addition, the MIC in series [7] is at most 0.2 µM. The same compound showed a half-maximal inhibitory concentration (IC50) in series [8] of over 26 µM. The “Hemolysis (HC10)” value with human red blood cells is over 26 µM. The “enhancement … of doxycycline” value with P. aeruginosa ATCC 27853 is recorded as “No enhancement was observed”. Further, the “enhancement … of erythromycin” value with E. coli ATCC 25922 is listed as “No enhancement was observed”.

For `C[C@H](CCC(=O)NCCCNCCCCCCCCCCCCNCCCNC(=O)CC[C@@H](C)[C@H]1CC[C@H]2[C@@H]3[C@@H](O)C[C@@H]4C[C@H](O)CC[C@]4(C)[C@H]3CC[C@]12C)[C@H]1CC[C@H]2[C@@H]3[C@@H](O)C[C@@H]4C[C@H](O)CC[C@]4(C)[C@H]3CC[C@]12C.O=C(O)C(F)(F)F.O=C(O)C(F)(F)F` [Compound 8f, N^1,N^12-Bis(3-((R)-4-((3R,5S,7S,8R,9S,10S,13R,14S,17R)-3,7-dihydroxy-10,13-dimethylhexadecahydro-1H-cyclopenta[a]phenanthren-17-yl)pentanamido)propyl)dodecane-1,12-diaminium 2,2,2-trifluoroacetate], the MIC was at most 0.19 µM in [1]; over 25 µM in [2]; over 25 µM in series [3]; over 25 µM in series [4]; over 25 µM in series [5]; 3.1 µM in [6]. In series [7], the MIC is at most 0.19 µM. The compound further gave an IC50 in [8] of 8.4 µM. In series [9], the “Cytotoxicity (IC50)” value is given as “exhibiting cytotoxic properties”. Moreover, the “Hemolysis (HC10)” value in the series on human red blood cells was found to be 1.4 µM.

On to `C[C@H](CCC(=O)NCCCNCCCCNCCCNC(=O)CC[C@@H](C)[C@H]1CC[C@H]2[C@@H]3[C@H](O)C[C@@H]4C[C@H](O)CC[C@]4(C)[C@H]3CC[C@]12C)[C@H]1CC[C@H]2[C@@H]3[C@H](O)C[C@@H]4C[C@H](O)CC[C@]4(C)[C@H]3CC[C@]12C.O=C(O)C(F)(F)F.O=C(O)C(F)(F)F` [Compound 9a, N^1,N^4-Bis(3-((R)-4-((3R,5S,7R,8R,9S,10S,13R,14S,17R)-3,7-dihydroxy-10,13-dimethylhexadecahydro-1H-cyclopenta[a]phenanthren-17-yl)pentanamido)propyl)butane-1,4-diaminium 2,2,2-trifluoroacetate], for which the minimal inhibitory concentration (MIC) in series [1] was at most 0.21 µM; in series [2] it was 6.8 µM; in series [3], over 27 µM; in series [4], over 27 µM; in [5], 27 µM; in series [6], at most 0.21 µM. Also, in [7], the MIC was at most 0.21 µM. This compound also showed an IC50 in [8] of 27 µM. In series [9], the “Cytotoxicity (IC50)” value is listed as “devoid of cytotoxicity”.
